Data reported in patent US20130023555A1, “KINASE INHIBITOR WITH IMPROVED SOLUBILITY PROFILE” (Abbott Laboratories, priority 2011, published 2013).
In brackets after ≈: the same amount, converted by molar mass.

What was measured:
[1] = target: T1, CYP3A4 (Homo sapiens, UniProt P08684); assay: CYP 3A4 Assay (Luc, luminescence, human liver microsomes); format: in vitro ADME; details: human liver microsomes 0.4 mg/mL, substrate LUC-LIPA
T1 construct: The incubations consisted of human liver microsomal protein at 0.4 mg/ml; from tissue; host or cells: human liver microsomes
Experimental: Each assay was preformed in ½ well plates. Test compounds were examined at six concentrations in DMSO that were serial diluted to: 2, 0.6, 0.2, 0.07, 0.02, and 0.007 mM (from left to right) and at 100×; 0.5 ul of these dilutions were added to two empty assay plates (resulting in final assay concentrations of 20, 6, 2, 0.7, 0.2, and 0.07 uM. The control and vehicle were added to the plate at 100× with the same dilution scheme.
The incubations consisted of human liver microsomal protein at 0.4 mg/ml in 100 mM KPO4 buffer, 125 uM NADPH and Regeneration mix in phosphate buffer at pH 7.4.
CYP3A4 requires a pre-incubation using the following recipe:
• CYP3A4—5 μM LUC-LIPA in 100 mM phosphate buffer pH 7.4 • Assay Procedure for CYP3A4: • 1. 40 uL of the Pre-incubation Mixture was added to all wells of the assay plates. • 2. Plates were pre-incubated for 10 minutes at 37° C., with shaking or rocking. (No pre-read is necessary for the luminescence assays CYP2C9 and CYP3A4). • 3. 10 μL of Substrate Solution was added to all wells of the assay plates. • 4. Plates were incubated for an additional 25 minutes at 37° C., with shaking or rocking. • 5. added 50 μl of stop/developer from respective kits, and incubated for 20 minutes to 2 hours with shaking at room temperature prior to reading. […]

[2] = target: T2, cKIT (Homo sapiens, UniProt P10721); assay: HTRF in vitro kinase assay, cKIT; format: biochemical; details: 1 mM ATP
T2 construct: GST
Experimental: To determine the activity of the various kinases, a homogenous time-resolved fluorescence (HTRF) in vitro kinase assay was used. (Mathis, G., HTRF(R) Technology. J Biomol Screen, 1999. 4(6): p. 309-314; Alfred J. Kolb, Paul V. Kaplita, David J. Hayes, Young-Whan Park, Christine Pernell, John S. Major and Gerard Mathis, Drug Discovery Today, 1998, 3, 333-342.)
For example for KDR, cKIT, FLT1, CSF1R and FTL3, purified enzyme was mixed with 0.5 μM N-biotinylated substrate (Biotin-Ahx-[…]-amide (SEQ. ID. 1)), various concentrations of inhibitor in reaction buffer (50 mM HEPES, pH 7.1, 10 mM MgCl2, 2 mM MnCl2, 0.1% BSA and 1 mM DTT, 40 μL final volume), ATP (1 mM final conc.) in a black 384-well plate. After 60 minutes incubation at room temperature, the reaction was quenched by addition of a buffered EDTA solution (final approximate concentrations: 30 mM EDTA, 0.1% BSA, 0.1% Triton X-100 and 0.24M KF) and a solution of revelation agents (to give 0.084 ng/well streptavidin-XL-665 (Cis-Bio) and 6.5 ng/well antiphsophotyrosine mAb PT66-K Europium kryptate) was added to the reaction mixture. The quenched reaction was allowed to stand at room temperature for 3 hours and was then read in a time-resolved fluorescence detector (InVision, Perkin-Elmer) at 620 nm and 665 nm sequentially with excitation. The ratio between the signal of 620 nm and 665 nm was used in the calculation of the IC50.

[3] = CLND Solubility Assay; format: physicochemical; details: aqueous buffer, kinetic from dmso stock; 35 μM compound in 10 mM phosphate buffer, pH 7.2
Experimental: Chemiluminescent nitrogen detection (CLND) method oxidized the analyte to nitrogen oxide that reacted with ozone to provide a photon of light and was a measure of how much compound was in solution. Compounds must contain nitrogens for this experiment. Nitrogen impurities present in the compound will cause falsely high results. • 1. Compound concentration tested was 35 μM in 10 mM phosphate buffer, 7.2. • 2. Compounds were tested in triplicate. • 3. Compound concentration was determined by comparing readings to a caffeine standard curve. One standard curve was run before and after every test plate. For 3 test plates, four standard curves were generated.
Experimental Procedure: • 1. 5 μl of 5 mM test compound in DMSO was added to three adjacent wells in a plate. • 2. 695 μl of 10 mM phosphate buffer, pH 7.2, was added to each well. • 3. The plates were sealed. • 4. The plates were allowed to sonicate for 1 hour. • 5. The plates were shook on a plate orbital shaker for up to 6 hours. • 6. The plates were spinned at 5000 rpm (6000×G) overnight. • 7. Standard curves were prepared by adding 5 μl of stock solutions to wells according to Caffeine Concentrations for Standard Curve table below. • 8. Buffer (10 mM phosphate buffer, pH 7.2, 695 μl) was added. • 9. The plates were sealed. • 10. The plates were loaded onto a TOC/CLND. • 11. The results were analyzed after the run was completed.
The solubility was determined by comparing the reading generated by analysis of the sample to the standard curve. The value was then divided by the number of nitrogens contained in the compound. Corrections for impurities during the synthesis were included in the number of nitrogens. The resulting value was the reported solubility.

[4] = Determination of Thermodynamic Solubility; format: physicochemical; details: for solubility: thermodynamic from solid
Experimental: Aqueous pH 7.4 and PEG 300 samples were tested at 25° C. Excess amount of the bulk drug was weighed out and mixed with an aliquot of target media in a clear glass vial (n=3/solvent). The vial was capped, wrapped with aluminum foil, and tumbled in a 25° C. water bath. When equilibration was completed, the samples were removed from the water bath and the final pH was measured, if applicable. The samples were centrifuged at 25° C. at 3000 rpm for 20 minutes. The supernatant was filtered through 4 mm 0.45 μm PTFE syringe filters. The filtrate was assayed after appropriate dilution (no dilution required for aqueous samples). The concentration of the sample was calculated against a calibration curve for the compound.
Solubility in pH 7.4 buffer was carried out as described above, except samples were not centrifuged before filtration. All other experimental steps were the same. PEG 300 and PEG 400 solubility were done at ambient temperature. Excess amount of the bulk drug was weighed out and mixed with an aliquot of target media in a clear glass vial with a small stir bar (n=3). The vials were placed on the stirrer at ˜500 rpm and allowed to equilibrate over the weekend. Samples were filtered through 13 mm 0.45 μm GHP syringe filters. The filtrate was assayed after appropriate dilutions, and concentrations determined against a calibration curve for the compound.

T1 sequence (P08684 whole entry): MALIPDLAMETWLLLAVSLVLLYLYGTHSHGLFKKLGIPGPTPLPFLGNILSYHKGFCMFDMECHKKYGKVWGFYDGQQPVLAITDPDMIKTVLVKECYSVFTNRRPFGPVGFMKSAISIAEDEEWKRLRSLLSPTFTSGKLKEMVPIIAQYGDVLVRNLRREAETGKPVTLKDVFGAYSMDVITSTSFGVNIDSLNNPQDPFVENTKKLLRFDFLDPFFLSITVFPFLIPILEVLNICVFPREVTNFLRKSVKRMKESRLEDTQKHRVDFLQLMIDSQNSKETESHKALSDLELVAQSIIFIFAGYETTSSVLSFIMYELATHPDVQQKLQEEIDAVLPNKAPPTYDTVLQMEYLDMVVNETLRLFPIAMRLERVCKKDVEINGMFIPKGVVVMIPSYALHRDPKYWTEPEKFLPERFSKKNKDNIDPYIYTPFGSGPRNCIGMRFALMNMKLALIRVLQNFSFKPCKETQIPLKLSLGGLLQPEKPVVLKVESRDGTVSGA
T2 sequence (P10721 544-976 limits assumed): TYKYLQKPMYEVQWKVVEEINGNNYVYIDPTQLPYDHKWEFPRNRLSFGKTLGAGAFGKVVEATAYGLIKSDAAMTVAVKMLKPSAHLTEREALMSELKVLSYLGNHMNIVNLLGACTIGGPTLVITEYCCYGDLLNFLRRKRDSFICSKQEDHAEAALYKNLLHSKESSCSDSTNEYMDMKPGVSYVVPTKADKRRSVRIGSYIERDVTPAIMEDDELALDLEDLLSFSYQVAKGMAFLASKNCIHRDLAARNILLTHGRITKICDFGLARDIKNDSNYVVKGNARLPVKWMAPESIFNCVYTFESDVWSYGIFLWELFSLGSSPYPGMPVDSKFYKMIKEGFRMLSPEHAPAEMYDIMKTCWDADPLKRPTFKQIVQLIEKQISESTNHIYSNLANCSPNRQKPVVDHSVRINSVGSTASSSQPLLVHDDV

Question: With `CCN(CC)CCCNC(=O)c1cnc(N)c2c(-c3ccc(NC(=O)Nc4cccc(F)c4)cc3)csc12` [Example 1, 4-amino-N-[3-(diethylamino)propyl]-3-(4-{[(3-fluorophenyl)carbamoyl]amino}phenyl)thieno[3,2-c]pyridine-7-carboxamide] as the compound, how does the IC50 [1] read?
Answer: > 20 µM

Question: What about the IC50 [2] of the same compound?
Answer: 0.035 µM

Question: And the solubility [3]?
Answer: 70.8 µM (≈ 37.8 µg/mL)

Question: And the solubility ([4]; PEG 300, 25 °C, organic solvent or mixture, PEG 300, Example 2 at 25° C., Example 1 at ambient temperature, read-out: Solubility (PEG300))?
Answer: 132 mg/mL (≈ 247 mM)

Question: And the “Solubility (PEG300)” value ([4]; PEG 300, Example 2 at 25° C., Example 1 at ambient temperature)?
Answer: >125 mg/mL

Question: And the solubility ([4]; PEG 400, organic solvent or mixture, PEG 400, ambient temperature, read-out: Solubility PEG 400)?
Answer: 124 mg/mL (≈ 232 mM)

Question: And the solubility ([4]; phosphate buffer, 25 °C, pH 7.4, aqueous buffer, 50 mM phosphate pH 7.4 buffer, 25° C., read-out: Solubility pH 7.4)?
Answer: 0.0171 mg/mL (≈ 0.032 mM)
